{"source": "patent US20130251731A1", "about": "“Tau Acetylation in the Pathogenesis of Alzheimers Disease and Other Related Tauopathies” (THE TRUSTEES OF THE UNIVERSITY OF PENNSYLVANIA, priority 2012, published 2013)", "key": {"[1]": {"assay": "Heparin-induced tau fibrillization assay quantified by Thioflavin-T binding", "format": "biochemical", "conditions": "10 μM tau proteins, 10 μM heparin, 4-h incubation", "procedure": "(§1) Recombinant full-length T40, 4R-tau MT-binding domain K18, or tau fibrils were acetylated by incubation with [^14C]-labeled acetyl-CoA in the presence or absence of CBP. FIG. 1A illustrates that the reaction products were analyzed by SDS-PAGE and Coomassie blue staining followed by overnight radiographic exposure using STORM phosphor-imager software. FIG. 1B depicts the results of an experiment where T40 or K18 proteins were incubated with acetyl-CoA and/or recombinant CBP and reaction products were subjected to immunoblot analysis using a polyclonal anti-tau-specific antibody for MT repeat domain (E10) and an anti-acetyl-lysine antibody. FIG. 1C is a graph depicting the MT assembly activities of K18 proteins as evaluated in light-scattering assays. Tubulin monomers (30 μM) were mixed with 40 μM tau proteins in MT assembly buffer supplemented with 2 mM guanosine triphosphate. MT assembly was determined by monitoring absorbance every minute at 350 nm using a SpectraMax plate reader. […] FIG. 1D is a graph illustrating the results of experiments where Tau proteins (10 μM) were evaluated in fibrillization reactions using 10 μM heparin to induce assembly. […] Samples were analysed by SDS-PAGE and Coomassie staining to monitor fibril formation. FIG. 1F illustrates the results of experiments where four-hour time points from fibrillization reactions were analysed by negative-staining EM. […]\nTau K18 protein was either mock acetylated or acetylated in vitro using acetyl-CoA substrate as indicated elsewhere herein. […] Protein concentrations were determined using the bicinchoninic acid protein assay (Pierce) with bovine serum albumin as the standard. Acetylated K18 and mock-treated K18 were assessed by a light-scattering assay as described elsewhere herein. […] The extent of fibrillization was assessed at different time points by ThT fluorescence assay, sedimentation analysis and negative staining EM as described elsewhere herein. For ThT fluorescence assay, ThT diluted in 100 mM glycine buffer (pH 8.5) was added and fluorometric readings were taken at 450 nm (excitation) and 510 nm (emission). […]"}, "[2]": {"test_system": "MT bundling in QBI-293 cells", "assay": "MT bundling in tau-transfected QBI-293 cells (immunofluorescence)", "format": "cell-based", "conditions": "ten fields/transfection", "procedure": "FIG. 2, comprising FIG. 2A through FIG. 2K, depicts the results of experiments which illustrate that tau acetylation in cells inhibits tau-mediated MT stabilization. FIG. 2A depicts the results of an experiment where Doxycycline (Dox)-treated HEK-T40 cells were cultured in the presence of either trichostatin A (TSA), nicotinamide (NCA) or both and pulse labelled with [^3H]-acetate for 2 h. Tau was immunoprecipitated, treated with λ-phosphatase where indicated, and analyzed by SDS-PAGE followed by autoradiography and exposure to film for 2 weeks. Total cellular lysates were analyzed by immunoblotting using anti-tau (T14/T46), PHF-1 and GAPDH antibodies. FIG. 2B illustrates the results of an experiment where cells transfected with CBP were treated with TSA and acetylated tau levels were determined by immunoprecipitation/immunoblot analysis using anti-acetylated lysine antibody. Cellular lysates were immunoblotted using T14/46, PHF-1, AT8 and GAPDH antibodies. FIG. 2C depicts the results of an experiment where cells were transfected with CBP and either wild-type (WT) HDAC6 or the catalytically dead (CD) HDAC6-H611A mutant and tau acetylation was determined by immunoblotting similar to FIG. 2B above. FIG. 2D depicts the results of an experiment where QBI-293 cells were transfected with WT T40, 2KR (K280/281R), 3KR (K163/280/281R) or 4KR (K163/280/281/369R) mutant T40 and cell lysates were immunoblotted using anti-acetyl-lysine and total tau (T14/T46) antibodies. FIG. 2E through FIG. 2G are images illustrating the results of an experiment where QBI-293 cells were transfected with WT T40 (FIG. 2E) and total MT bundling was determined by immunofluorescence using anti-acetylated tubulin antibodies as shown for WT (FIG. 2F). Merged images indicate stabilized microtubules as shown for WT (FIG. 2G). FIG. 2H through FIG. 2J are images illustrating the results of an experiment where QBI-293 cells were transfected with 4KQ (K163/280/281/369Q) (FIG. 2H) and MT bundling was determined by immunofluorescence using anti-acetylated tubulin antibodies as shown for 4KQ (FIG. 2I) and merged images (FIG. 2J). Representative images are shown from n=4 independent experiments. Note, WT tau (FIG. 2E-FIG. 2G), but not 4KQ (FIG. 2H-FIG. 2J), promotes robust MT bundling. Scale bar, […]. FIG. 2K is a graph illustrating the results of an experiment where QBI-293 cells were transfected with WT T40, K280Q, 4KQ (K163/280/281/369Q) or 4KR mutant plasmids and MT bundling was determined from tau-expressing cells by quantification of ten fields/transfection and values are represented as % MT bundling from tau-expressing cells. Error bars indicate standard error of the mean. *P value=0.006, ***P value=8.46×10^−6 as determined by Student's t-test. […]"}, "[3]": {"test_system": "histones and microtubules", "conditions": "substrate as listed (H4-21, H3p19, H3, microtubules); cited from earlier work"}, "[4]": {"test_system": "auto-acetylated substrate", "conditions": "auto-acetylation, cited from earlier work; for Km: read-out: Km AcCoA [auto]"}, "[5]": {"test_system": "acetylated tau in HEK-T40 cells", "assay": "Tau acetylation in HEK-T40 cells ([3H]-acetate labelling / immunoprecipitation)", "format": "cell-based, human", "procedure": "FIG. 2, comprising FIG. 2A through FIG. 2K, depicts the results of experiments which illustrate that tau acetylation in cells inhibits tau-mediated MT stabilization. FIG. 2A depicts the results of an experiment where Doxycycline (Dox)-treated HEK-T40 cells were cultured in the presence of either trichostatin A (TSA), nicotinamide (NCA) or both and pulse labelled with [^3H]-acetate for 2 h. Tau was immunoprecipitated, treated with λ-phosphatase where indicated, and analyzed by SDS-PAGE followed by autoradiography and exposure to film for 2 weeks. Total cellular lysates were analyzed by immunoblotting using anti-tau (T14/T46), PHF-1 and GAPDH antibodies. FIG. 2B illustrates the results of an experiment where cells transfected with CBP were treated with TSA and acetylated tau levels were determined by immunoprecipitation/immunoblot analysis using anti-acetylated lysine antibody. […] FIG. 2C depicts the results of an experiment where cells were transfected with CBP and either wild-type (WT) HDAC6 or the catalytically dead (CD) HDAC6-H611A mutant and tau acetylation was determined by immunoblotting similar to FIG. 2B above. […] FIG. 2E through FIG. 2G are images illustrating the results of an experiment where QBI-293 cells were transfected with WT T40 (FIG. 2E) and total MT bundling was determined by immunofluorescence using anti-acetylated tubulin antibodies as shown for WT (FIG. 2F). […]"}, "[6]": {"target": "T1, tau-K18 acetyltransferase activity (Homo sapiens, UniProt P10636)", "T1 construct": "made in house", "T1 sequence (P10636 561-685 limits assumed)": "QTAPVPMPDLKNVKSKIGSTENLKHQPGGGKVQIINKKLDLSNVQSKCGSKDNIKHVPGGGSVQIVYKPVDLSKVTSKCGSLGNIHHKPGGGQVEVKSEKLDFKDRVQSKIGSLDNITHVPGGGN", "assay": "Tau auto-acetylation filter binding assay, cofactor inhibition analysis", "format": "biochemical", "conditions": "25 μM tau, 450 μM [3H]-acetyl-CoA; for IC50: 1 hr at 37° C., read-out: IC50 for inhibition of acetyl-CoA-dependent tau-K18 acetyltransferase activity", "procedure": "Reactions were assembled in 50 μl of reaction buffer containing 50 mM Tris pH 8.0, 100 μM EDTA, and 10% glycerol. Unless specifically noted, reactions contained 25 μM of either WT tau-K18 or tau-K18-2CA mutant. The reactions were initiated by the addition of [^3H]-acetyl-CoA (2.35 Ci mmol^−1, Perkin Elmer) at concentrations ranging from 2.5 μM to 1 mM, incubated at 37° C., and allowed to proceed for 1 hr (unless otherwise noted). Reactions were stopped by the addition of 10 μl of 3 mM CoA, and 25 μl of the reaction was then spotted to a P81 filter paper (Whatman), washed in 10 mM HEPES pH 7.5 three times, and dried using acetone. Incorporated [^3H]-acetyl-CoA was then measured using the Perkin Elmer Tri-Carb 2800TR Liquid Scintillation Analyzer, and the molar amount of acetyl groups incorporated into tau were calculated from a standard curve of the radiolabeled acetyl-CoA.\nReactions were performed in the buffer described above and at 25 μM tau. Reactions included between 1 and 4000 μM of the inhibitors: CoA, acetonyl-CoA, or pantothenic acid. All reactions were initiated by the addition of 450 μM [^3H]-acetyl-CoA (2.35 Ci mmol^−1, Perkin Elmer), incubated for 1 hr at 37° C., and stopped by spotting 25 μl of the reaction to the P81 filter paper. Radiolabeled incorporation was measured as stated above. All data were analyzed using GraphPad Prism to determine kinetic parameters and IC50 values."}, "tubulin": {"test_system": "tubulin", "assay": "MT assembly light-scattering assay", "format": "biochemical", "conditions": "30 μM tubulin, 40 μM tau proteins, 2 mM GTP", "procedure": "as §1"}}}
{"compound": "K18-K311D: K18 containing the K311D mutation, negative control", "values": [{"measurement": "fibrillization (ThT)", "setting": "[1]", "value": "did not fibrillize"}]}
{"compound": "4KR: tau non-mimetic mutant K163/280/281/369R", "values": [{"measurement": "% MT bundling from tau-expressing cells", "setting": "[2]", "value": "~50", "unit": "%"}]}
{"compound": "4KQ: tau acetylation mimetic K163/280/281/369Q", "values": [{"measurement": "% MT bundling from tau-expressing cells", "setting": "[2]", "value": "~7", "unit": "%"}]}
{"compound": "Rtt109 + Vps75: acetyltransferase listed for literature kinetics comparison", "values": [{"measurement": "Kcat", "setting": "[3]", "value": 0.375, "unit": "s⁻¹"}, {"measurement": "Kcat [auto]", "setting": "[4]", "value": 0.002, "unit": "s⁻¹"}, {"measurement": "Km", "setting": "[4]", "value": 912, "unit": "µM"}]}
{"compound": "p300: nuclear acetyltransferase, literature kinetics", "values": [{"measurement": "Kcat", "setting": "[3]", "value": 0.46, "unit": "s⁻¹"}, {"measurement": "Km", "setting": "[4]", "value": 3310, "unit": "µM"}]}
{"compound": "CC(/C=C/C(=O)NO)=C\\[C@@H](C)C(=O)c1ccc(N(C)C)cc1", "note": "[trichostatin A]", "values": [{"measurement": "acetylated tau levels", "setting": "[5]; HEK-T40 cells pulse labelled with [3H]-acetate for 2 h", "value": "dramatic increase in acetylated tau levels"}, {"measurement": "acetylated tau (anti-acetyl-lysine)", "setting": "[5]; HEK-T40 cells transiently transfected with CBP", "value": "dramatic accumulation of acetylated tau"}]}
{"compound": "K280Q: single K280Q acetylation mimetic of T40 tau", "values": [{"measurement": "% MT bundling from tau-expressing cells", "setting": "[2]", "value": "~40", "unit": "%"}]}
{"compound": "CC(C)(CO)[C@@H](O)C(=O)NCCC(=O)O", "note": "[pantothenic acid]", "values": [{"measurement": "inhibition of tau activity (cofactor competition)", "setting": "[6]; between 1 and 4000 μM inhibitor", "value": "did not show significant inhibition"}]}
{"compound": "ESA1: MYST-family acetyltransferase, literature kinetics", "values": [{"measurement": "Kcat", "setting": "[3]", "value": 0.122, "unit": "s⁻¹"}, {"measurement": "Km", "setting": "[4]", "value": 9.4, "unit": "µM"}]}
{"compound": "acetylated K18: tau K18 protein acetylated in vitro using acetyl-CoA and CBP", "values": [{"measurement": "fibrillization (ThT)", "setting": "[1]", "value": "fibrillized rapidly by 3 h"}, {"measurement": "MT assembly (absorbance at 350 nm)", "setting": "tubulin", "value": "failed to promote MT assembly"}]}
{"compound": "CC(=O)CSCCNC(=O)CCNC(=O)[C@H](O)C(C)(C)COP(=O)(O)OP(=O)(O)OC[C@H]1O[C@@H](n2cnc3c(N)ncnc32)[C@H](O)[C@@H]1OP(=O)(O)O", "note": "[acetonyl-CoA]", "values": [{"measurement": "IC50", "setting": "[6]", "value": 668, "unit": "µM"}]}
{"compound": "CC(C)(COP(=O)(O)OP(=O)(O)OC[C@H]1O[C@@H](n2cnc3c(N)ncnc32)[C@H](O)[C@@H]1OP(=O)(O)O)[C@@H](O)C(=O)NCCC(=O)NCCS", "note": "[CoA]", "values": [{"measurement": "IC50", "setting": "[6]", "value": 59, "unit": "µM"}]}
{"compound": "WT tau: wild-type longest human tau isoform (T40) expressed in cells", "values": [{"measurement": "% MT bundling from tau-expressing cells", "setting": "[2]", "value": "~55", "unit": "%"}]}
